Data set [1] has as its target T1, interaction between Supt4h and NGN (subunit of Supt5h) (Homo sapiens, UniProt O00267+P63272).
T1 construct: expressed in transfected cells
Put plainly: Split Gaussia luciferase complementation assay (M2-8 Luciferase). Format: cell-based. The following applies: M2-8 cells. The procedure: A. Split Gaussia Luciferase Complementation Assay […]
i: pNBR-X1-Supt4-Gluc1 and pNEBR-X1-NGN-Gluc2
The HA-Supt4h and Flag-NGN fragments are amplified by PCR using the plasmid pHA-Supt4h-YC and pFlag-NGN-YN and sub-cloned individually into pcDNA3.1-Gluc1 and pcDNA3.1-Gluc2 (described in “A highly sensitive protein-protein interaction assay based on Gaussia luciferase” published at Nat Methods. 2006 December; 3(12):977-9. Epub 2006 Nov. 12). Then HA-Supt4h-Gluc1 and Flag-NGN-Gluc2 are amplified by PCR and inserted to pNEBR-X1-Hygro (New England BioLabs), which contain RheoSwitch responsive element under the control of RheoSwitch ligand. […]
ii: pNEBR-X1-Supt4h-G1-NGN-G2
PCR products containing the sequence from 5XRE to polyA in pNEBR-X1-NGN-G2 are inserted to pNEBR-X1-Supt4h-G1 at Pcil site to generate Supt4h-G1 and NGN-G2 bidirectional under their own RheoSwitch responsive element and polyA in the same plasmid. […]
b. Stable Cloned Cell Line i: 293-R1 is a cloned cell line which is engineered to constitutively express RSL1 receptor/activator by transfecting HEK 293 cells with pNEBR-R1 plasmid (New England BioLabs) and selected with blasticidin. […]
ii: M2-8 is a cloned 293-R1 cell which can inducibly express pNEBR-X1-Supt4h-G1-NGN-G2 by addition of RSL1. Two point mutations ([…] and M110I) are introduced to the GL1 and GL2 for better stability according to “A high-throughput cell-based Gaussia luciferase reporter assay for identifying modulators of fibulin-3 secretion” published in J Biomol Screen. 2013 July; 18(6):647-58. The cell line is selected by hygromycin. […]
c. Cell Culture and Transfection Condition
All the HEK-293 cells and derivative clones are maintained in DMEM containing 10% FBS plus corresponding antibiotics (250 μg/ml hygromycin B, 10 μg/ml blasticidin or both) at 37° C., 5% CO2. All the transfections are done by using Lipofectamine 2000 (Invitrogen) according to the manufacturer's instructions. […]
d. Bioluminescence Assay from Cell Lysates
Plasmids harboring the Gluc1 and Gluc2 are co-transfected in a 1:1 ratio into 293-R1 cells plated on tissue culture treated 24-well plates using Lipofectamine 2000 according to the manufacturer's instructions. For stable M2-8 cells, the cells are directly plated into 96-well or 384-well white plates. Twenty-four hours later, RheoSwitch ligand with or without test compound is added to the cells for induction/drug treatment. After 24 hr, the cells are washed with PBS and the plate was stored at −20° C. overnight. Lysis buffer [30 mM Tris-HCl (pH 8.0) 5 mM NaCl, 0.1% Triton X-100] with 10 μg/ml native coelenterazine (Nanolight Technology) is then added to the cells at room temperature for one hour in the dark. After shaking for about 1 min, 40 μl of cell lysate are transferred to a white 96-well plate. For M2-8 in white micro plate, no transfer is needed. Signal intensities (integrated 100 ms) were read on Tecan Infinite M200 or M1000.
The split Gaussia luciferase complementation assay measures the interaction between Sup4h and NGN. NGN is the subunit of Supt5h that binds to Supt4h.

The subject of the next data set is M2-8 cells. The experiment in a line: M2-8 Cell viability Assay. Format: cell-based. The conditions noted are these: at the concentration of 1000 nM.

Structures are written as SMILES. A value given as a limit tells only on which side of the number the result lay.

On to `CC(C)(O)c1ccc(C(CF)N[C@@H]2CCCc3c2[nH]c2ccc(Br)cc32)cc1` (single isomer, unassigned) [Compound 54], for which the IC50 in data set [1] is at most 0.1 µM. Besides, in the data set on M2-8 cells, the “M2-8 Cell viability” value is “+ (cell viability is greater than 50% at the concentration of 1000 nM)”.

`C(#CC1CC1)c1ccc2[nH]c3c(c2c1)CCC[C@H]3NCc1ccccc1` [Compound 34, (R)—N-benzyl-6-(cyclopropylethynyl)-2,3,4,9-tetrahydro-1H-carbazol-1-amine] came in with an IC50 in data set [1] above 1 µM. For the same compound, the “M2-8 Cell viability” value in the data set with M2-8 cells is recorded as “+ (cell viability is greater than 50% at the concentration of 1000 nM)”.

With `O=[N+]([O-])c1ccc(CN[C@@H]2CCCc3c2[nH]c2ccc(Br)cc32)cc1` [Compound 30, (R)-6-bromo-N-(4-nitrobenzyl)-2,3,4,9-tetrahydro-1H-carbazol-1-amine], the IC50 in data set [1] was in the range of 0.101 to 0.3 µM. The “M2-8 Cell viability” value in the data set with M2-8 cells is “+ (cell viability is greater than 50% at the concentration of 1000 nM)”.

Take `Brc1ccc2[nH]c3c(c2c1)CCC[C@H]3NCc1ccc(CN2CCOCC2)cc1` [Compound 72]: the IC50 in data set [1] was at most 0.1 µM. Besides, in the data set on M2-8 cells, the “M2-8 Cell viability” value is reported as “+ (cell viability is greater than 50% at the concentration of 1000 nM)”.

Take `COCC(N[C@@H]1CCCc2c1[nH]c1ccc(Br)cc21)c1ccc(CN2CCOCC2)cc1` (stereo partly shown) [Compound 61]: in data set [1], the IC50 was in the range of 0.101 to 0.3 µM. For the same compound, the “M2-8 Cell viability” value with M2-8 cells is “+ (cell viability is greater than 50% at the concentration of 1000 nM)”.

With `C=C(C)c1ccc(CN[C@@H]2CCCc3c2[nH]c2ccc(Br)cc32)cc1` [Compound 47, (R)-6-bromo-N-(4-(prop-1-en-2-yl)benzyl)-2,3,4,9-tetrahydro-1H-carbazol-1-amine], the IC50 in data set [1] lay in the range of 0.101 to 0.3 µM. For the same compound, the “M2-8 Cell viability” value with M2-8 cells is “+ (cell viability is greater than 50% at the concentration of 1000 nM)”.

Turning to `OCC#Cc1ccc2[nH]c3c(c2c1)CCC[C@H]3NCc1ccccc1` [Compound 7, (R)-3-(1-(benzylamino)-2,3,4,9-tetrahydro-1H-carbazol-6-yl)prop-2-yn-1-ol], the IC50 in data set [1] fell in the range of 0.301 to 1 µM. Moreover, the “M2-8 Cell viability” value in the data set on M2-8 cells is “+ (cell viability is greater than 50% at the concentration of 1000 nM)”.

In data set [1], `c1ccc(CN[C@@H]2CCCc3c2[nH]c2ccccc32)cc1` [Compound 4, (R)—N-benzyl-2,3,4,9-tetrahydro-1H-carbazol-1-amine] had a 50% inhibitory concentration (IC50) above 1 µM. Moreover, the “M2-8 Cell viability” value in the data set on M2-8 cells is given as “+ (cell viability is greater than 50% at the concentration of 1000 nM)”.

Consider `CC(C)(O)c1ccc(C(CO)N[C@@H]2CCCc3c2[nH]c2ccc(Br)cc32)cc1` (mixture of isomers) [Compound 51, 2-(4-(1-(((R)-6-bromo-2,3,4,9-tetrahydro-1H-carbazol-1-yl)amino)-2-hydroxyethyl)phenyl) propan-2-ol], for which the IC50 in data set [1] lay in the range of 0.301 to 1 µM. The “M2-8 Cell viability” value in the data set with M2-8 cells is “+ (cell viability is greater than 50% at the concentration of 1000 nM)”.

Turning to `OCCc1ccc2[nH]c3c(c2c1)CCC[C@H]3NCc1ccccc1` [Compound 12, (R)-2-(1-(benzylamino)-2,3,4,9-tetrahydro-1H-carbazol-6-yl)ethan-1-ol], in data set [1], the IC50 is above 1 µM. Further, the “M2-8 Cell viability” value in the data set with M2-8 cells is reported as “+ (cell viability is greater than 50% at the concentration of 1000 nM)”.

With `COc1ccccc1CN[C@@H]1CCCc2c1[nH]c1ccc(Br)cc21` [Compound 23, (R)-6-bromo-N-(2-methoxybenzyl)-2,3,4,9-tetrahydro-1H-carbazol-1-amine], the IC50 in data set [1] is 0.301 to 1 µM. For the same compound, the “M2-8 Cell viability” value in the data set with M2-8 cells is “+ (cell viability is greater than 50% at the concentration of 1000 nM)”.

In data set [1], `CN(C)c1ccc(CN[C@@H]2CCCc3c2[nH]c2ccc(Br)cc32)cc1` [Compound 29, (R)-6-bromo-N-(4-(dimethylamino)benzyl)-2,3,4,9-tetrahydro-1H-carbazol-1-amine] registered an IC50 of 0.101 to 0.3 µM. The “M2-8 Cell viability” value in the data set with M2-8 cells is “+ (cell viability is greater than 50% at the concentration of 1000 nM)”.

In data set [1], `CC(C)(OCCO)c1ccc(CN[C@@H]2CCCc3c2[nH]c2ccc(Br)cc32)cc1` [Compound 56, (R)-2-((2-(4-(((6-bromo-2,3,4,9-tetrahydro-1H-carbazol-1-yl)amino)methyl)phenyl)propan-2-yl)oxy)ethan-1-ol] registered an IC50 of at most 0.1 µM. For the same compound, the “M2-8 Cell viability” value in the data set with M2-8 cells was “+ (cell viability is greater than 50% at the concentration of 1000 nM)”.

Consider `CC(C)(O)c1ccc(C(CF)N[C@@H]2CCCc3c2[nH]c2ccc(Br)cc32)cc1` (single isomer, unassigned) [Compound 55], for which the IC50 in data set [1] was at most 0.1 µM. Further, the “M2-8 Cell viability” value with M2-8 cells is reported as “+ (cell viability is greater than 50% at the concentration of 1000 nM)”.

`c1ccc(CN[C@@H]2CCCc3c2[nH]c2ccc(-c4ccccc4)cc32)cc1` [Compound 8, (R)—N-benzyl-6-phenyl-2,3,4,9-tetrahydro-1H-carbazol-1-amine]: in data set [1], the IC50 is above 1 µM. Further, the “M2-8 Cell viability” value in the data set with M2-8 cells is reported as “+ (cell viability is greater than 50% at the concentration of 1000 nM)”.

`OCc1ccc(CN[C@@H]2CCCc3c2[nH]c2ccc(Br)nc32)s1` [Compound 67]: in data set [1], the IC50 is at most 0.1 µM. Further, the “M2-8 Cell viability” value in the data set with M2-8 cells was “+ (cell viability is greater than 50% at the concentration of 1000 nM)”.

Regarding `N[C@@H]1CCCc2c1[nH]c1ccc(Br)cc21` [Compound 15], the IC50 in data set [1] is above 1 µM. Moreover, in the data set with M2-8 cells, the “M2-8 Cell viability” value is reported as “+ (cell viability is greater than 50% at the concentration of 1000 nM)”.

With `Oc1ccc(-c2ccc3[nH]c4c(c3c2)CCC[C@H]4NCc2ccccc2)cc1` [Compound 10, (R)-4-(1-(benzylamino)-2,3,4,9-tetrahydro-1H-carbazol-6-yl)phenol], the IC50 in data set [1] was above 1 µM. Further, the “M2-8 Cell viability” value in the data set with M2-8 cells is reported as “+ (cell viability is greater than 50% at the concentration of 1000 nM)”.

Consider `COCC(N[C@@H]1CCCc2c1[nH]c1ccc(Br)cc21)c1ccc(CN2CCN(C(C)=O)CC2)cc1` (stereo partly shown) [Compound 62], for which the IC50 in data set [1] is 0.101 to 0.3 µM. The “M2-8 Cell viability” value in the data set with M2-8 cells is recorded as “+ (cell viability is greater than 50% at the concentration of 1000 nM)”.

`Brc1ccc2[nH]c3c(c2c1)CCC[C@H]3NCc1ccc(N2CCCC2)cc1` [Compound 22, (R)-6-bromo-N-(4-(pyrrolidin-1-yl)benzyl)-2,3,4,9-tetrahydro-1H-carbazol-1-amine] registered an IC50 in data set [1] of 0.101 to 0.3 µM. The “M2-8 Cell viability” value with M2-8 cells was “+ (cell viability is greater than 50% at the concentration of 1000 nM)”.

With `c1ccc(CN[C@@H]2CCCc3c2[nH]c2ccc(-c4cn[nH]c4)cc32)cc1` [Compound 11, (R)—N-benzyl-6-(1H-pyrazol-4-yl)-2,3,4,9-tetrahydro-1H-carbazol-1-amine], the IC50 in data set [1] is above 1 µM. The “M2-8 Cell viability” value in the data set on M2-8 cells is reported as “+ (cell viability is greater than 50% at the concentration of 1000 nM)”.

The compound `Brc1ccc2[nH]c3c(c2c1)CCC[C@H]3NCc1ccc2ccccc2c1` [Compound 20, (R)-6-bromo-N-(naphthalen-2-ylmethyl)-2,3,4,9-tetrahydro-1H-carbazol-1-amine] registered an IC50 in data set [1] of 0.101 to 0.3 µM. In addition, the “M2-8 Cell viability” value with M2-8 cells is recorded as “+ (cell viability is greater than 50% at the concentration of 1000 nM)”.

`OCCOCc1ccc(CN[C@@H]2CCCc3c2[nH]c2ccc(Br)nc32)cc1` [Compound 64] gave an IC50 in data set [1] of 0.101 to 0.3 µM. In addition, in the data set on M2-8 cells, the “M2-8 Cell viability” value is listed as “+ (cell viability is greater than 50% at the concentration of 1000 nM)”.

The record behind these values is US20220062233A1 (The Board of Trustees of the Leland Stanford Junior …, priority 2018, published 2022).
